Measurements: patent publication US7705028B2, “Farnesoid X receptor agonists” (GlaxoSmithKline LLC, priority 2005, dated 2010)
Structures can show the parent of a compound that is named as a salt. Where two headings read alike, the source gives them in different places.

How the values were obtained:
[1] = target: T1, human FXR ligand binding domain (LBD) (Homo sapiens, UniProt Q96RI1); assay: FXR Cofactor Binding Assay (TRF, SRC-1 peptide recruitment); format: biochemical; details: read-out: Activity (pEC50) (converted)
T1 construct: polyhistidine (pRSET-A vector leader) (N); made in house; host or cells: E. coli BL21 (DE3), pRSET-A vector
T1 sequence (Q96RI1 237-472 isoform Q96RI1-2): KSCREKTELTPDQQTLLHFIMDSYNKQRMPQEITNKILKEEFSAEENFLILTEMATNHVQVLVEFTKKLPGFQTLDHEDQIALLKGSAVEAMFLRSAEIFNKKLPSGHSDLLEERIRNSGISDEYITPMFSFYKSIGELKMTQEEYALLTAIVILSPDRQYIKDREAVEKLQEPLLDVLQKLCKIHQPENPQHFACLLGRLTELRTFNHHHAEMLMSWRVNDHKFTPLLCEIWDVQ
T1 sequence (Q15788 676-700 partner): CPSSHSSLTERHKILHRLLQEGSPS
Source text: Determination of a ligand mediated cofactor peptide interaction to quantify ligand binding to the nuclear receptor Farnasoid X Receptor (FXR). The method measures the ability of putative ligands to modulate the interaction between the purified bacterial expressed human FXR ligand binding domain (LBD) and a synthetic biotinylated peptide based on residues 676-700 of steroid receptor coactivator-1 (SRC-1) (LXXLL-containing domain-2 where L is the amino acid leucine and X indicates any other amino acid (LCD2), 676-700). The sequence of the SRC-1 peptide used is as published in Iannone, M. A. et al, Cytometry 44:326-337 (2001) where the N-terminus was biotinylated (B) and the C-terminus was amidated. Detection of the associated complex was measured by time resolved fluorescence (TRF). The purified LBD of FXR was labeled with biotin then mixed with stoichiometric amounts of allophycocyanin (APC) labeled streptavidin (Molecular Probes). The biotinylated peptide was then mixed with a ½ stoichiometric amount of europium labeled streptavidin (Wallac Inc). Each was then blocked with a 5 fold excess of biotin and allowed to equilibrate for 15 min. Equimolar amounts of receptor and peptide were mixed together and were allowed to equilibrate for at least 30 min prior to the addition to either a variable or constant concentrations of the sample for which the affinity is to be determined. After equilibration, the time-resolved fluorescent signal was quantitated using a fluorescent plate reader. The affinity of the test compound was estimated from a plot of fluorescence versus concentration of test compound added.
A basal level of FXR: peptide formation is observed in the absence of added ligand. Ligands that promote the complex formation induce a concentration-dependent increase in time-resolved fluorescent signal. Compounds which bind equally well to both non-/un-complexed FXR and to the FXR: peptide complex would be expected to give no change in signal, whereas ligands which bind preferentially to the non-/un-complexed receptor would be expected to induce a concentration-dependent decrease in the observed signal.
Human FXR Ligand Binding Domain (FXR LBD) was expressed in E. coli strain BL21 (DE3) as an amino-terminal polyhistidine tagged fusion protein. Expression was under the control of an isopropyl-β-D-thiogalactopyranoside (IPTG) inducible T7 promoter. DNA encoding this recombinant protein is subcloned into the pRSET-A expression vector (Invitrogen). The coding sequence of Human FXR LBD was derived from Genbank accession number U 68233 (amino acids 237 to 472).
Ten-liter fermentation batches were grown in Rich PO4 media with 0.1 mg/mL Ampicillin at 25° C. for 12 hours, cooled to 9° C. and held at that temperature for 36 hours to a density of OD600=14. At this cell density, 0.25 mM IPTG is added and induction proceeded for 24 hours at 9° C., to a final OD600=16. Cells are harvested by centrifugation (20 minutes, 3500× gravity, 4° C.), and concentrated cell slurries were stored in phosphate buffered saline (PBS) at […].
Routinely, 30-40 g cell paste (equivalent to 2-3 liters of the fermentation batch) was resuspended in 200-250 mL Tris buffered saline (TBS), pH 7.2 (25 mM Tris-Hydroxymethylamino methane (Tris), 150 mM NaCl). Cells were lysed by passing 3 times through a French Press and cell debris was removed by centrifugation (30 minutes, 20,000× gravity, 4° C.). The cleared supernatant was filtered through course pre-filters, and TBS, pH 7.2, 500 mM imidazole was added to obtain a final imidazole concentration of 50 mM. This lysate was loaded onto a column (6×8 cm) packed with Sepharose [Ni^++ charged] Chelation resin (Pharmacia) and pre-equilibrated with TBS pH 7.2/50 mM imidazole. After washing to baseline absorbance with equilibration buffer, the column was washed with one column volume of TBS pH 7.2 containing 90 mM imidazole. FXR LBD was eluted directly with 365 mM imidazole. […]

[2] = test system: hepatic stellate cells (HSC); details: cultured HSCs; cited from earlier work
[3] = test system: rodent models of hepatic fibrosis; details: multiple rodent models; cited from earlier work
[4] = test system: high-fat diet induced insulin resistant, glucose intolerant, and obese mouse model; assay: High-fat diet induced insulin resistant, glucose intolerant, obese mouse model; format: in vivo; details: C57BL mice, 100 mg/kg twice a day orally
Source text: Compounds of formula (I) are also useful for the treatment of diabetes mellitus in a subject, such as a mammal, particularly a human. For example, the compounds of formula (I) are useful for the treatment of type 2 diabetes. The effects of an FXR agonist, GW4064, on body weight, glucose tolerance, serum glucose, serum insulin, serum triglyceride, and liver triglyceride contents via oral administration have been observed in an high-fat diet induced insulin resistant, glucose intolerant, and obese mouse model. Male 20 to 25 g C57BL mice (Charles River, Indianapolis, Ind.) were housed at 72° F. and 50% relative humidity with a 12 h light and dark cycle and fed with standard rodent chow (Purina 5001, Harlan Teklad, Indianapolis, Ind.) or a high-fat diet (TD93075, Harlan Teklad, Indianapolis, Ind.) for seven weeks. After two weeks, mice on high-fat diet were randomized to vehicle or treatment groups. There were no significant difference in body weight, body fat mass, serum glucose and insulin, and area under the curve (AUC) for glucose in glucose tolerance test (GTT) between the vehicle group and the treatment group. Starting from the fourth week, mice were given either vehicle or GW4064 (100 mg/kg) twice a day orally. Mice on the standard rodent chow were also given vehicle as a control. At the end of the third week of compound treatment, a GTT was performed and body composition was measured using the quantitative magnetic resonance (QMR) method. […] Blood glucose during GTT was measured using Bayer Glucometer Elite® XL. Serum chemistry levels were measured using the Instrumentation Laboratory Ilab600™ clinical chemistry analyzer (Instrumentation Laboratory, Boston, Mass.). Liver triglyceride contents were measured using the methanolic-KOH saponification method and a triglyceride assay kit (GPO-TRINDER, Sigma Diagnostics, St. Louis, Mo.). […] It is believed that the result may have been due to a decrease in fat mass.

[5] = test system: bile duct-ligated mouse model of cholestasis and intestinal bacterial overgrowth; details: cited from earlier work
[6] = test system: mice on a lithogenic diet; details: cited from earlier work
[7] = protocol †: 0.1 μL of test compound, final assay volume 10 μL
[8] = protocol ⋄: 0.5 μL of test compound, final assay volume 25 μL

CC(C)c1onc(-c2c(Cl)cccc2Cl)c1COc1ccc(-c2ccc3c(C(=O)O)cccc3c2)cc1 [Example 1, 6-[4-({[3-(2,6-Dichlorophenyl)-5-(1-methylethyl)-4-isoxazolyl]methyl}oxy)phenyl]-1-naphthoic Acid Sodium Salt]
EC50 [1, 7]: < 100 nM
EC50 [1, 8]: < 100 nM

CC(C)c1onc(-c2c(Cl)cccc2Cl)c1COc1ccc(-c2ccc3c(C(=O)O)cccc3c2)c(Cl)c1 [Example 2, 6-[2-Chloro-4-({[3-(2,6-dichlorophenyl)-5-(1-methylethyl)-4-isoxazolyl]methyl}oxy)phenyl]-1-naphthalenecarboxylic acid]
EC50 [1, 7]: 102 to 1000 nM

O=C(O)c1cccc2cc(-c3ccc(OCc4c(-c5c(Cl)cccc5Cl)noc4C4CCC4)cc3)ccc12 [Example 3, 6-[4-({[5-cyclobutyl-3-(2,6-dichlorophenyl)-4-isoxazolyl]methyl}oxy)phenyl]-1-naphthalenecarboxylic acid]
EC50 [1, 7]: 102 to 1000 nM

CC(C)c1onc(Cc2c(Cl)cccc2Cl)c1COc1ccc(-c2ccc3c(C(=O)O)cccc3c2)cc1 [Example 4, 6-[4-({[3-[(2,6-dichlorophenyl)methyl]-5-(1-methylethyl)-4-isoxazolyl]methyl}oxy)phenyl]-1-naphthalenecarboxylic acid]
EC50 [1, 8]: 102 to 1000 nM

CC(C)c1onc(CCc2c(Cl)cccc2Cl)c1COc1ccc(-c2ccc3c(C(=O)O)cccc3c2)cc1 [Example 5, 6-[4-({[3-[2-(2,6-dichlorophenyl)ethyl]-5-(1-methylethyl)-4-isoxazolyl]methyl}oxy)phenyl]-1-naphthalenecarboxylic acid]
EC50 [1, 7]: 102 to 1000 nM
EC50 [1, 8]: < 100 nM

CC(C)c1onc(-c2c(Cl)cccc2Cl)c1COc1ccc(-c2ccc3cc(C(=O)O)ccc3c2)cc1 [Example 6, 6-(4-{[3-(2,6-dichlorophenyl)-5-isopropylisoxazol-4-yl]methoxy}phenyl)-2-naphthoic acid]
EC50 [1, 7]: 102 to 1000 nM

CC[C@H]1[C@@H](O)[C@@H]2[C@H](CC[C@]3(C)[C@@H]([C@H](C)CCC(=O)O)CC[C@@H]23)[C@@]2(C)CC[C@@H](O)C[C@@H]12 [Example 6EtCDCA, 6-ethyl-chenodeoxycholic acid]
expression of fibrotic markers such as α-smooth muscle actin and α1(I)collagen [2]: decreased expression of fibrotic markers
hepatic fibrosis [3]: prevent development and promote resolution of hepatic fibrosis

CC(C)c1onc(-c2c(Cl)cccc2Cl)c1COc1ccc(-c2ccc3ccc(C(=O)O)cc3c2)cc1 [Example 8, 7-[4-({[3-(2,6-dichlorophenyl)-5-(1-methylethyl)-4-isoxazolyl]methyl}oxy)phenyl]-2-naphthalenecarboxylic acid]
EC50 [1, 7]: 102 to 1000 nM

CC(C)c1onc(CCc2c(Cl)cccc2Cl)c1COc1ccc(-c2ccc3ccc(C(=O)O)cc3c2)cc1 [Example 9, 7-[4-({[3-[2-(2,6-dichlorophenyl)ethyl]-5-(1-methylethyl)-4-isoxazolyl]methyl}oxy)phenyl]-2-naphthalenecarboxylic acid]
EC50 [1, 7]: 102 to 1000 nM

CC(C)c1onc(-c2c(Cl)cccc2Cl)c1COc1ccc(-c2ccc3cccc(C(=O)O)c3c2)cc1 [Example 10, 7-[4-({[3-(2,6-dichlorophenyl)-5-(1-methylethyl)-4-isoxazolyl]methyl}oxy)phenyl]-1-naphthalenecarboxylic acid]
EC50 [1, 7]: 1020 to 10000 nM

CC(C)c1onc(CCc2c(Cl)cccc2Cl)c1COc1ccc(-c2ccc3cccc(C(=O)O)c3c2)cc1 [Example 11, 7-[4-({[3-[2-(2,6-dichlorophenyl)ethyl]-5-(1-methylethyl)-4-isoxazolyl]methyl}oxy)phenyl]-1-naphthalenecarboxylic acid]
EC50 [1, 7]: 1020 to 10000 nM

CC(C)c1onc(-c2c(Cl)cccc2Cl)c1COc1ccc(-c2ccc3c(C(N)=O)cccc3c2)cc1 [Example 12a, 6-[4-({[3-(2,6-dichlorophenyl)-5-(1-methylethyl)-4-isoxazolyl]methyl}oxy)phenyl]-1-naphthalenecarboxamide]
EC50 [1, 8]: 1020 to 10000 nM

CC(C)c1onc(-c2c(Cl)cccc2Cl)c1COc1ccc(-c2ccc3c(C#N)cccc3c2)cc1 [Example 12b, 6-[4-({[3-(2,6-dichlorophenyl)-5-(1-methylethyl)-4-isoxazolyl]methyl}oxy)phenyl]-1-naphthalenecarbonitrile]
EC50 [1, 8]: 1020 to 10000 nM

CC(C)c1onc(-c2c(Cl)cccc2Cl)c1COc1ccc(-c2ccc3c(-c4nn[nH]n4)cccc3c2)cc1 [Example 12c, 5-{6-[4-({[3-(2,6-dichlorophenyl)-5-(1-methylethyl)-4-isoxazolyl]methyl}oxy)phenyl]-1-naphthalenyl}-1H-tetrazole]
EC50 [1, 8]: 102 to 1000 nM

CC(C)c1onc(-c2c(Cl)cccc2Cl)c1COc1ccc(/C=C/c2cccc(C(=O)O)c2)c(Cl)c1 [GW4064]
high-fat diet induced body weight gain [4]: reduced the high-fat diet induced body weight gain
glucose tolerance (GTT) ([4]; end of third week of treatment): appeared to improve glucose tolerance
liver triglyceride content ([4]; fourth week of treatment): reduced liver triglyceride content
serum glucose ([4]; fourth week of treatment): decreased
serum insulin ([4]; fourth week of treatment): decreased
serum triglyceride ([4]; fourth week of treatment): decreased
effect on translocation of bacteria in FXR null mice ([5]; FXR null mice): lost in FXR null mice
bacterial overgrowth ([5]; bile duct-ligated mice): decreased bacterial overgrowth
mucosal barrier ([5]; bile duct-ligated mice): improved mucosal barrier
translocation of bacteria to mesenteric lymph nodes ([5]; bile duct-ligated mice): decreased translocation of bacteria to mesenteric lymph nodes
effect on cholesterol crystal formation in FXR null mice ([6]; FXR null mice): lost in FXR null mice
formation of cholesterol crystals in the bile ([6]; mice on a lithogenic diet): prevented the formation of cholesterol crystals in the bile
